Each structure is given as a SMILES string.

Common to all, as to assay: biochemical
The target of assay [1] is T1, panel of 374 wild-type kinases (Homo sapiens, UniProt P50613).
T1 construct: purchased Reaction Biology Corporation
The settings on record: read-out: % Enzyme Activity (relative to DMSO controls), CDK7/cyclin H.

The target of assay [2] is T2, panel of 374 wild-type kinases (Homo sapiens, UniProt P51817).
T2 construct: purchased Reaction Biology Corporation
T2 sequence (P51817 1-358): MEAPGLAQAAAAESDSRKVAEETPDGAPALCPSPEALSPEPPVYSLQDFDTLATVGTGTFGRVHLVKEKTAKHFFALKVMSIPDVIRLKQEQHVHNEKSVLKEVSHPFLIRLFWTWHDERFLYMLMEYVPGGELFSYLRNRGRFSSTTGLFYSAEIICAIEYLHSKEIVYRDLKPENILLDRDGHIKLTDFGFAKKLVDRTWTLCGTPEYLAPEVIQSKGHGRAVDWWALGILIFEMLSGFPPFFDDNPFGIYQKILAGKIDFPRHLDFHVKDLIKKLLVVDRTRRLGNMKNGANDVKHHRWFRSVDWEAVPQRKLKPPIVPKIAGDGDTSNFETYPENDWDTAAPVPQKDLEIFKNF
As to conditions: read-out: % Enzyme Activity (relative to DMSO controls), kinase PRKX.

For assay [3], the target named is T3, panel of 374 wild-type kinases (Homo sapiens, UniProt P52333).
T3 construct: purchased Reaction Biology Corporation
T3 sequence (P52333 1-1124): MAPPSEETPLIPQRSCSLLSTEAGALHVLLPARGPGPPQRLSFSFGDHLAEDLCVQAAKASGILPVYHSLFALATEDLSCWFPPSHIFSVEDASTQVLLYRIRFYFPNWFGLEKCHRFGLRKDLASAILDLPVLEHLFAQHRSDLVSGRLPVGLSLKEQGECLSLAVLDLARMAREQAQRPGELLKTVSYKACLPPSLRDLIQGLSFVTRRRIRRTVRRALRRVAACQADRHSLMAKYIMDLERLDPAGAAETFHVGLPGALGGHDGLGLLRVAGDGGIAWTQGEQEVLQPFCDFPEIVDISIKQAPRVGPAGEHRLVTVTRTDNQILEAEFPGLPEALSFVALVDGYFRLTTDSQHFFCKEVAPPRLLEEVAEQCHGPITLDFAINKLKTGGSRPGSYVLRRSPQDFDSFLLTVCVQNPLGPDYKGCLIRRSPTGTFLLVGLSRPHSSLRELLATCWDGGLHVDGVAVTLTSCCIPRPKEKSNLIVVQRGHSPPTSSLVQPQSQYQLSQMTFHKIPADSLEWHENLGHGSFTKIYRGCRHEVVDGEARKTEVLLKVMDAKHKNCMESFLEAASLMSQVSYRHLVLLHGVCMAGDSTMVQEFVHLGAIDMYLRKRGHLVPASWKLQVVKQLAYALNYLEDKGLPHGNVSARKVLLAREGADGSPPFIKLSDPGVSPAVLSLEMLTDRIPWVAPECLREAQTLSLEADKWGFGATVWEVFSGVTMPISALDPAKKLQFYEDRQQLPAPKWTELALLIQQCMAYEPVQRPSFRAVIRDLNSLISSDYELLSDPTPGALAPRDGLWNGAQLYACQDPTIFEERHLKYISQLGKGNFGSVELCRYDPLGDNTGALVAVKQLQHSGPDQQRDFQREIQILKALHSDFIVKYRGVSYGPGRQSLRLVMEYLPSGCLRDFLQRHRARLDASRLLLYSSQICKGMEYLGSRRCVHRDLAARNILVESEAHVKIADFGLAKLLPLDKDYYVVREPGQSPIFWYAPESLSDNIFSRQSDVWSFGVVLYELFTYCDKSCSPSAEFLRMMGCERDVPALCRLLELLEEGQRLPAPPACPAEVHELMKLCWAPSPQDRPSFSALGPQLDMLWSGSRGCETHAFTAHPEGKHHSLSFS
The settings on record: read-out: % Enzyme Activity (relative to DMSO controls), JAK3.

In assay [4] the target is T4, panel of 374 wild-type kinases (Homo sapiens, UniProt Q8N568).
T4 construct: purchased Reaction Biology Corporation
T4 sequence (Q8N568 1-766): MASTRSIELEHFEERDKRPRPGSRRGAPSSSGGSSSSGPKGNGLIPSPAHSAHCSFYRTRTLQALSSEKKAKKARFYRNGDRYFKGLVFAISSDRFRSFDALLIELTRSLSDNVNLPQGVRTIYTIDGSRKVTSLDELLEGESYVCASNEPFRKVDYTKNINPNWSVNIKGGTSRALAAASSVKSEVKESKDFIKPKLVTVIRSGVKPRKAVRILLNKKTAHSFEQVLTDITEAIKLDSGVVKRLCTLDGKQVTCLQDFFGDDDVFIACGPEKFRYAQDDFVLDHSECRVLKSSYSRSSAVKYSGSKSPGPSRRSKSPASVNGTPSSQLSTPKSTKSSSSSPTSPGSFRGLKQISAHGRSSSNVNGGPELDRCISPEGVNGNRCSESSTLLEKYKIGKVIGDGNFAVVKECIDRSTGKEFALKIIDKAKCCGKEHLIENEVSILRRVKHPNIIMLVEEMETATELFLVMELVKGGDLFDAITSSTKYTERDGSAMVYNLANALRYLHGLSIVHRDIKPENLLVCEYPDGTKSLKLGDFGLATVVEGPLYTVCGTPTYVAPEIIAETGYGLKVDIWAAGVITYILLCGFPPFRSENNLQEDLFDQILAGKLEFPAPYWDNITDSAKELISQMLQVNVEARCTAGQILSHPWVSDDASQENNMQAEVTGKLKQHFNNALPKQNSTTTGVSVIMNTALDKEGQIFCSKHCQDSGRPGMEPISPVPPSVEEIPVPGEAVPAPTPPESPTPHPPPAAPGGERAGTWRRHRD
As to conditions: read-out: % Enzyme Activity (relative to DMSO controls), DCAMKL2.

T1 sequence (P50613 whole entry): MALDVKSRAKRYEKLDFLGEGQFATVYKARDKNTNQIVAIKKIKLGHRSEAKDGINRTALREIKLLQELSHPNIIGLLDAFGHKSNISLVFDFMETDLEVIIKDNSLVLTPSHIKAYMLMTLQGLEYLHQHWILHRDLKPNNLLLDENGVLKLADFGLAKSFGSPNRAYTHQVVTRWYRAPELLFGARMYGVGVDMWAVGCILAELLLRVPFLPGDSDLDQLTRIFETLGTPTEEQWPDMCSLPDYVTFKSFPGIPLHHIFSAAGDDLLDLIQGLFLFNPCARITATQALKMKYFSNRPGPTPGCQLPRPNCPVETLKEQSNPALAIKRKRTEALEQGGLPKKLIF

Consider `O=C(Nc1cnn(-c2csc(C(=O)NC3COC3)c2)c1)Nc1ccccc1Cl` [Compound 17, 4-(4-(3-(2-chlorophenyl)ureido)-1H-pyrazol-1-yl)-N-(oxetan-3-yl)thiophene-2-carboxamide], for which the remaining activity at 5 µM amounted to 99.7% in assay [1], 104% in assay [2], 102% in assay [3] and 99.9% in assay [4].
Consider `O=C(Nc1cnn(-c2csc(C(=O)NC3COC3)c2)c1)Nc1c(F)cccc1Cl` [Compound 25, 4-(4-(3-(2-chloro-6-fluorophenyl)ureido)-1H-pyrazol-1-yl)-N-(oxetan-3-yl)thiophene-2-carboxamide], for which the remaining activity at 5 µM amounted to 95.8% in assay [1], 91.5% in assay [2], 98.7% in assay [3] and 94.3% in assay [4].
For `Cc1sc(C(=O)NC2COC2)cc1-n1cc(NC(=O)Nc2c(F)cccc2Cl)cn1` [Compound 27, 4-(4-(3-(2-chloro-6-fluorophenyl)ureido)-1H-pyrazol-1-yl)-5-methyl-N-(oxetan-3-yl)thiophene-2-carboxamide], the remaining activity at 10 µM was 103% in assay [1] (10 uM), 87.5% in assay [2] (10 uM), 96.7% in assay [3] (10 uM) and 107% in assay [4] (10 uM).

(Values after patent US20240246942A1, “KINASE INHIBITORS FOR THE TREATMENT OF NEURODEGENERATIVE DISEASES” (priority 2020, published 2024).)
